In PMC7724566, “Prospects for Clinical Development of Stat5 Inhibitor IST5-002: High Transcriptomic Specificity in Prostate Cancer and Low Toxicity In Vivo” (Cancers, 2020):
pIC50: −log10 of the molar value.

Tests used:
Stat5 [1] = assay: Stat5 phosphorylation in K562 cells (immunoblot); type: cell-based, human; details: 4 days
Method: (§1) In order to evaluate whether the phosphate group of IST5 is critical for IST5 activity in cell-based assays, we compared the potency of IST5 (Figure 4A) to that of IST5-M (IST5 without the phosphate group) (Figure 4B) in inhibiting phosphorylation of Stat5 in PC and CML cells. CML (K562) cells and PC (CWR22Rv1) cells were cultured for 4 days with increasing concentrations of IST5 and IST5-M (Figure 4C,D). […] Collectively, these finding indicate that IST5 and IST5-M have similar efficacies in inhibiting phosphorylation of Stat5 in both CML and PC cells.
(§2) Figure 4 IST5 and the IST5-derivative lacking the phosphate group (IST5-M), both, inhibit Stat5 phosphorylation in CML and prostate cancer cell line with high efficacy. (A), chemical structure of IST5-002 (IST5). (B), chemical structure of IST5-M (IST5 without the phosphate group. (C), IST5 and IST5-M both inhibit Stat5 phosphorylation in CML cells (K562) with high efficacy. K562 cells were treated with IST5 and IST5-M for 4 days at the concentrations indicated. Whole cell lysates (WCL) were immunoblotted with anti-pYStat5 mAb, anti-Stat5 mAb and anti-actin mAb as loading control. (D), IST5 and IST5-M, both, decrease Stat5 phosphorylation in PC cells (CWR22Rv1). CWR22Rv1 cells were treated with increasing concentrations of IST5 and IST5-M for 4 days. Stat5 was immunoprecipitated (IP) followed by immunoblotting (WB) with anti-pYStat5 mAb and anti-Stat5 mAb. Whole cell lysates (WCL) were immunoblotted with anti-actin mAb as loading control.
(§3) Cell pellets were solubilized in the lysis buffer (10 mM Tris-HCl (pH 7.6), 5 mM EDTA, 50 mM sodium chloride, 30 mM sodium pyrophosphate, 50 mM sodium fluoride, 1 mM sodium orthovanadate, 1% Triton X-100, 1 mM phenylmethylsulfonyl fluoride, 5 µg/mL aprotinin, 1 µg/mL pepstatin A and 2 µg/mL leupeptin), and protein concentrations of clarified cell lysates were determined by a simplified Bradford method (Bio-Rad, Hercules, CA, USA). The whole cell lysates were immunoprecipitated with polyclonal antibodies (Table S1) followed by incubation with protein A-Sepharose beads (GE Healthcare, Chicago, IL, USA). The cell lysates and immunoprecipitated proteins were separated on 4–12% SDS-PAGE (Life Technologies, Brown Deer, WI, USA) and transferred electrophoretically to polyvinylidene fluoride membrane (Millipore). For immunoblotting, blocking buffer was tris-buffered saline and tween 20 (TBST, 0.15 M NaCl; 0.1% Tween 20; 50 mM Tris, pH 8.0) with 3% bovine serum albumin (BSA). The immunoreaction with the specific antibodies (Table S1) was detected by horseradish peroxidase-conjugated secondary antibodies followed by enhanced chemiluminescence (GE Healthcare).

Stat5 [2] = assay: Stat5 phosphorylation in CWR22Rv1 cells (IP/immunoblot); type: cell-based, human; details: 4 days
Method: as §1, §2, §3

Stat5 [3] = molecular target: T1, Stat5 (Homo sapiens, UniProt P42229); assay: Native-gel-based Stat5 dimerization assay, CWR22Rv1 cells; type: cell-based; details: 1 µM, 6 h, Prl (10 nM) stimulated CWR22Rv1 cells, STAT5A-eYFP
T1 construct: expressed in transfected cells; host or cells: CWR22Rv1
Description: Having established that IST5 and IST5-M both interrupt phosphorylation of Stat5, we next investigated the potency of IST5-M vs. IST5 in suppressing dimerization of Stat5 in PC cells. First, we performed a native Polyacrylamide Gel Electrophoresis (PAGE) based Stat5 dimerization assay established originally by Fahrenkamp et al., where CWR22Rv1 cells were transfected with STAT5A-eYFP (Stat5 wild type), STAT5A-N642H-eYFP (constitutive activated Stat5 by N642H mutation, as a positive control) or STAT3-eYFP (Stat3 wild type, as a negative control) constructs for 3 days (Figure 5A). CWR22Rv1 cells were starved for 16 h, pretreated with vanadate (1 mM) for 2 h, followed by treatment with vehicle, IST5 or IST5-M (1 µM) for 6 h and stimulation with Prl (10 nM) for 1 h.
Figure 5 Both IST5 and IST5-M suppress dimerization of Stat5 with similar efficacies in prostate cancer cells. (A), IST5 and IST5-M inhibit equally potently dimerization of Stat5 in native-gel-based Stat5 dimerization assay. […] Dimerization of Stat5 was analyzed by detection of the eYFP fluorescence of the native Coomassie gel. […] (E), differences in posttranslational modifications were detected between native and recombinant STAT5a using mass spectrometry. Native STAT5a from CWR22Rv1 cells and recombinant STAT5a from E. coli were gel-purified, digested using trypsin, and analyzed by bottom-up mass spectrometry. […]

Stat5 [4] = tested on: Stat5; parameters: method as in PMID 31548294; details: patients treated with enzalutamide (median 6 months); cited from earlier work

T1 sequence (P42229 whole entry, species assumed): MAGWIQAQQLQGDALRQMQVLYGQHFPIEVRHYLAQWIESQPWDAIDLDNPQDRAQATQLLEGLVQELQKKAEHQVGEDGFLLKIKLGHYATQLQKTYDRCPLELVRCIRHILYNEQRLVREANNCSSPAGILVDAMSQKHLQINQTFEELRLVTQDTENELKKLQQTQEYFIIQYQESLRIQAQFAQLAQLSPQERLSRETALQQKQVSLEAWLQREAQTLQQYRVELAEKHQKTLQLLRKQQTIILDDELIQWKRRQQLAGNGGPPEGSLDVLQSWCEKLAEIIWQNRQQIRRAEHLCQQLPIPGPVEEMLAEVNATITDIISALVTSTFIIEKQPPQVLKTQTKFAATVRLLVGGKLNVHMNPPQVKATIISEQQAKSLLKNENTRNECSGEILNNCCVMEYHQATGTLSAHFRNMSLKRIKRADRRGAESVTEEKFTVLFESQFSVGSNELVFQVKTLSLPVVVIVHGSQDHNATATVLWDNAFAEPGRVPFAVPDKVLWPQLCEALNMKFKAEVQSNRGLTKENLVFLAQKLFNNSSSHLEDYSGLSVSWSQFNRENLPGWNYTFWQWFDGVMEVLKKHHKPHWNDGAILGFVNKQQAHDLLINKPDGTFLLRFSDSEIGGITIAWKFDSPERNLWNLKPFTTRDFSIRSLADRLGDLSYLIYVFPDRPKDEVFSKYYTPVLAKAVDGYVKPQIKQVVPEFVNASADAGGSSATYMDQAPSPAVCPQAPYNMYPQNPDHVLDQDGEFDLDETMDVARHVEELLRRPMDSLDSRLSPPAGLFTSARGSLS

SMILES | inhibition of Stat5 phosphorylation (Stat5 [1]; 2 µM, K562 cells) | pIC50 (Stat5 [1]; read-out: IC50, inhibition of Stat5 phosphorylation, K562 CML cells) | inhibition of Stat5 phosphorylation (Stat5 [2]; 2 µM, CWR22Rv1 cells) | pIC50 (Stat5 [2]; read-out: IC50, inhibition of Stat5 phosphorylation, CWR22Rv1 PC cells) | inhibition of Stat5 dimerization (Stat5 [3]) | PC biopsies with significantly elevated levels of Stat5 activation (Stat5 [4])
OCC1OC(n2cnc3c(NCc4ccccc4)ncnc32)C(O)C1O (stereo not drawn) [IST5-M] | 75–90% | ~5.96 | 60–75% | ~5.89 | inhibited robustly | 
CNC(=O)c1ccc(N2C(=S)N(c3ccc(C#N)c(C(F)(F)F)c3)C(=O)C2(C)C)cc1F [enzalutamide] |  |  |  |  |  | 10/10
